# Reference: patent US8772323B2, “Benzoxazole- and tetrahydrobenzoxazole-substituted pyridazinones as GPR119 agonists” (Boehringer Ingelheim International GmbH, priority 2010, dated 2014)
# Where a name gives a salt, the structure may show the parent alone.
# Target: human GPR119 (Homo sapiens (Human), UniProt Q8TDV5)
# Test: AlphaScreen cAMP assay in Min-6/hGPR119 cells (GPR119 activation, intracellular cAMP)
# Type: cell-based
# Conditions: MIN6 cells stably transfected with human GPR119; 45 minutes' incubation at RT; AlphaScreen cAMP Assay Kit
# How it was run: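 MIN6 cells stably expressing human GPR119 plated 10000 cells/well and held 24 h at 37° C. Compounds applied in stimulating buffer, pH 7.4, with 0.5 mM IBMX, 0.1% BSA, 1% DMSO final, for 45 min at RT. Intracellular cAMP read by AlphaScreen.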
# human GPR119, sequence (Q8TDV5 whole entry): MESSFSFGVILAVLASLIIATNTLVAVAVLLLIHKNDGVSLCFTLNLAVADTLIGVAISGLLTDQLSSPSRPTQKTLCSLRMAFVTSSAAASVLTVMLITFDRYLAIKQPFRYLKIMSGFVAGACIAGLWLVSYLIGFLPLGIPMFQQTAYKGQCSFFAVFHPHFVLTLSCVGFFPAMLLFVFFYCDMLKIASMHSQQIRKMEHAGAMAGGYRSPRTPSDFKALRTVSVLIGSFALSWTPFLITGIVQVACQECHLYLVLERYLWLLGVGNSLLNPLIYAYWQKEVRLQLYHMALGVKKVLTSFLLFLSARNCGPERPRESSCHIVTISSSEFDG
row,SMILES,EC50 [nM]
1,"CCCC1CC(=O)NN=C1c1ccc2nc(-c3ccccc3)oc2c1 (stereo not shown) [Example 8, 6-(2-phenyl-benzoxazol-6-yl)-5-propyl-4,5-dihydro-2H-pyridazin-3-one]",874
2,"CCC[C@H]1C(=O)NN=C(c2ccc3nc(-c4cc(C)oc4C)oc3c2)[C@@H]1C (relative stereo) [Example 189, trans-6-[2-(2,5-dimethyl-furan-3-yl)-benzoxazol-6-yl]-5-methyl-4-propyl-4,5-dihydro-2H-pyridazin-3-one]",127
3,"CCC1CC(=O)NN=C1c1ccc2nc(-c3cccc(O)c3)oc2c1 (stereo not shown) [Example 39, 6-[2-(3-hydroxy-phenyl)-benzoxazol-6-yl]-5-ethyl-4,5-dihydro-2H-pyridazin-3-one]",329
4,"O=C1NN=C(c2ccc3nc(Cc4ccccc4)oc3c2)C2CC12 (stereo not shown) [Example 136, 5-(2-benzyl-benzoxazol-6-yl)-3,4-diaza-bicyclo[4.1.0]hept-4-en-2-one]",2020
5,"CCC1CC(=O)NN=C1c1ccc2nc(-c3ccc(OC4CCCCC4O)cc3)oc2c1 (stereo not shown) [Example 212, 5-ethyl-6-(2-{4-[(2-hydroxycyclohexyl)oxy]phenyl}-1,3-benzoxazol-6-yl)-2,3,4,5-tetrahydropyridazin-3-one]",108
6,"CCC[C@@H]1C(=O)NN=C(c2ccc3nc(-c4ccc(OCCN5CCCCC5)cc4)oc3c2)[C@H]1C (stereo in doubt) [Example 173, trans-5-methyl-6-{2-[4-(3-piperidin-1-yl-ethoxy)-phenyl]-benzoxazol-6-yl}-4-propyl-4,5-dihydro-2H-pyridazin-3-one]",218
7,"CC[C@@H]1CC(=O)NN=C1c1ccc2nc(-c3ccccc3)oc2c1 [Example 31, (R)-5-ethyl-6-(2-phenyl-benzoxazol-6-yl)-4,5-dihydro-2H-pyridazin-3-one]",66
8,"CCC1CC(=O)NN=C1c1ccc2nc(-c3ccc(OCCCN(C)C)cc3)oc2c1 (stereo not shown) [Example 62, 6-{2-[4-(3-dimethylamino-propoxy)-phenyl]-benzoxazol-6-yl}-5-ethyl-4,5-dihydro-2H-pyridazin-3-one]",552
9,"CCC1CC(=O)NN=C1c1ccc2nc(-c3ccc(C(C)C)cc3)oc2c1 (stereo not shown) [Example 175, 5-ethyl-6-[2-(4-isopropyl-phenyl)-benzoxazol-6-yl]-4,5-dihydro-2H-pyridazin-3-one]",462
10,"CCC[C@@H]1C(=O)NN=C(c2ccc3nc(-c4ccc(OC)cc4)oc3c2)[C@H]1C (relative stereo) [Example 174, trans-6-[2-(4-methoxy-phenyl)-benzoxazol-6-yl]-5-methyl-4-propyl-4,5-dihydro-2H-pyridazin-3-one]",92
11,"CCC1CC(=O)NN=C1c1ccc2nc(-c3cccc(OCc4ccncc4)c3)oc2c1 (stereo not shown) [Example 150, 5-ethyl-6-{2-[3-(pyridin-4-ylmethoxy)-phenyl]-benzoxazol-6-yl}-4,5-dihydro-2H-pyridazin-3-one]",1260
12,"CCC1CC(=O)NN=C1c1ccc2nc(-c3ccc(OCCN(C)C(C)C)cc3)oc2c1 (stereo not shown) [Example 219, 5-ethyl-6-(2-{4-[2-(isopropyl-methyl-amino)-ethoxy]-phenyl}-benzoxazol-6-yl)-4,5-dihydro-2H-pyridazin-3-one]",438
13,"CC1CC(=O)NN=C1c1ccc2nc(-c3cccc(C#N)c3)oc2c1 (stereo not shown) [Example 123, 3-[6-(4-methyl-6-oxo-1,4,5,6-tetrahydropyridazin-3-yl)-1,3-benzoxazol-2-yl]benzonitrile]",902
14,"CCC[C@H]1C(=O)NN=C(c2ccc3nc(-c4cccn4C)oc3c2)[C@@H]1C (relative stereo) [Example 252, Trans-5-methyl-6-[2-(1-methyl-1H-pyrrol-2-yl)-benzoxazol-6-yl]-4-propyl-4,5-dihydro-2H-pyridazin-3-one]",110
15,"CCC1CC(=O)NN=C1c1ccc2nc(-c3ccc(OCCN4C[C@@H](C)O[C@@H](C)C4)cc3)oc2c1 (stereo partly drawn) [Example 246, 6-(2-{4-[2-(cis-2,6-dimethyl-morpholin-4-yl)-ethoxy]-phenyl}-benzoxazol-6-yl)-5-ethyl-4,5-dihydro-2H-pyridazin-3-one]",54
16,"CCC1CC(=O)NN=C1c1ccc2nc(-c3cccc(OC)c3)oc2c1 (stereo not shown) [Example 102, 5-ethyl-6-[2-(3-methoxy-phenyl)-benzoxazol-6-yl]-4,5-dihydro-2H-pyridazin-3-one]",316
17,"CCC1CC(=O)NN=C1c1ccc2nc(-c3ccc(OCc4cnco4)cc3)oc2c1 (stereo not shown) [Example 63, 5-ethyl-6-{2-[4-(oxazol-5-ylmethoxy)-phenyl]-benzoxazol-6-yl}-4,5-dihydro-2H-pyridazin-3-one]",324
18,"CCC1CC(=O)NN=C1c1ccc2nc(-c3ccc(OCCN4CCC(C)CC4)cc3)oc2c1 (stereo not shown) [Example 243, 5-ethyl-6-(2-{4-[2-(4-methyl-piperidin-1-yl)-ethoxy]-phenyl}-benzoxazol-6-yl)-4,5-dihydro-2H-pyridazin-3-one]",197
19,"CCC1CC(=O)NN=C1c1ccc2nc(-c3ccc(OC(C)CO)cc3)oc2c1 (stereo not shown) [Example 251, 5-ethyl-6-{2-[4-(2-hydroxy-1-methyl-ethoxy)-phenyl]-benzoxazol-6-yl}-4,5-dihydro-2H-pyridazin-3-one]",296

row,SMILES,EC50 [nM]
1,"CCC1OC(=O)NN=C1N1CCc2nc(-c3ccccc3)oc2C1 (stereo not shown) [Example 205, 6-ethyl-5-(2-phenyl-6,7-dihydro-4H-oxazolo[5,4-c]pyridin-5-yl)-3,6-dihydro-[1,3,4]oxadiazin-2-one]",50
2,"CCC1CC(=O)NN=C1c1ccc2nc(-c3ccc(OC(C)CN4CCOCC4)cc3)oc2c1 (stereo not shown) [Example 221, 5-ethyl-6-{2-[4-(1-methyl-2-morpholin-4-yl-ethoxy)-phenyl]-benzoxazol-6-yl}-4,5-dihydro-2H-pyridazin-3-one]",204
3,"CC1(C)CC(c2ccc3nc(-c4ccccc4)oc3c2)=NNC1=O [Example 21, 4.4-dimethyl-6-(2-phenyl-benzoxazol-6-yl)-4,5-dihydro-2H-pyridazin-3-one]",> 10000
4,"CCC1CC(=O)NN=C1c1ccc2nc(-c3ccc(OCCOC)cc3)oc2c1 (stereo not shown) [Example 214, 5-ethyl-6-{2-[4-(2-methoxy-ethoxy)-phenyl]-benzoxazol-6-yl}-4,5-dihydro-2H-pyridazin-3-one]",122
5,"CC[C@H]1CC(=O)NN=C1c1ccc2nc(-c3ccc(OC4CCOCC4)cc3)oc2c1 [Example 194, (S)-5-ethyl-6-{2-[4-(tetrahydro-pyran-4-yloxy)-phenyl]-benzoxazol-6-yl}-4,5-dihydro-2H-pyridazin-3-one]",333
6,"CO[C@@H]1CC(=O)NN=C1c1ccc2nc(-c3ccccc3)oc2c1 [Example 27, (R)-5-methoxy-6-(2-phenyl-benzoxazol-6-yl)-4,5-dihydro-2H-pyridazin-3-one]",444
7,"COc1ccccc1-c1nc2ccc(C3=NNC(=O)CC3C)cc2o1 (stereo not shown) [Example 86, 6-[2-(2-methoxy-phenyl)-benzoxazol-6-yl]-5-methyl-4,5-dihydro-2H-pyridazin-3-one]",1150
8,"CC1CC(=O)NN=C1c1ccc2nc(-c3ccc(CN)cc3)oc2c1 (stereo not shown) [Example 124, 6-[2-(4-aminomethyl-phenyl)-benzoxazol-6-yl]-5-methyl-4,5-dihydro-2H-pyridazin-3-one]",8720
9,"CCC1CC(=O)NN=C1c1ccc2nc(-c3ccc(OCC4CCNCC4)cc3)oc2c1 (stereo not shown) [Example 71, 4-{4-[6-(4-ethyl-6-oxo-1,4,5,6-tetrahydro-pyridazin-3-yl)-benzoxazol-2-yl]-phenoxymethyl}-piperidine as hydrochloride]",> 10000
10,"CO[C@H]1CC(=O)NN=C1c1ccc2nc(-c3ccccc3)oc2c1 [Example 28, (5S)-5-methoxy-6-(2-phenyl-1,3-benzoxazol-6-yl)-2,3,4,5-tetrahydropyridazin-3-one]",213
11,"CCC1CC(=O)NN=C1c1ccc2nc(-c3ccc(N(C)C)cc3)oc2c1 (stereo not shown) [Example 96, 6-[2-(4-dimethylamino-phenyl)-benzoxazol-6-yl]-5-ethyl-4,5-dihydro-2H-pyridazin-3-one]",42
12,"CCC[C@H]1C(=O)NN=C(c2ccc3nc(-c4ccc(Cl)cc4)oc3c2)[C@@H]1C (relative stereo) [Example 185, trans-6-[2-(4-chloro-phenyl)-benzoxazol-6-yl]-5-methyl-4-propyl-4,5-dihydro-2H-pyridazin-3-one]",142
13,"CCC1CC(=O)NN=C1c1ccc2nc(-c3ccc(OCC(=O)N4CCCCC4)cc3)oc2c1 (stereo not shown) [Example 61, 5-ethyl-6-{2-[4-(2-oxo-2-piperidin-1-yl-ethoxy)-phenyl]-benzoxazol-6-yl}-4,5-dihydro-2H-pyridazin-3-one]",342
14,"CCC1CC(=O)NN=C1c1ccc2nc(-c3ccc(OC[C@@H]4CCCN4)cc3)oc2c1 (stereo partly shown) [Example 238, 5-ethyl-6-{2-[4-(S-pyrrolidin-2-yl-methoxy)-phenyl]-benzoxazol-6-yl}-4,5-dihydro-2H-pyridazin-3-one×HCl]",2950
15,"CCC[C@H]1C(=O)NN=C(c2ccc3nc(-c4ccccc4)oc3c2)[C@@H]1C [Example 196, (4R,5R)-5-methyl-6-(2-phenyl-1,3-benzoxazol-6-yl)-4-propyl-2,3,4,5-tetrahydropyridazin-3-one]",39
16,"CCC1CC(=O)NN=C1c1ccc2nc(-c3ccc(OCc4ccncc4)cc3)oc2c1 (stereo not shown) [Example 46, 5-ethyl-6-{2-[4-(pyridin-4-ylmethoxy)-phenyl]-benzoxazol-6-yl}-4,5-dihydro-2H-pyridazin-3-one]",345
17,"CCC1CC(=O)NN=C1c1ccc2nc(-c3ccc(O[C@@H]4CCCC[C@H]4N(CC)CC)cc3)oc2c1 (relative stereo) [Example 224, 6-{2-[4-(trans-2-diethylamino-cyclohexyloxy)-phenyl]-benzoxazol-6-yl}-5-ethyl-4,5-dihydro-2H-pyridazin-3-one]",319
18,"CCC1CC(=O)NN=C1c1ccc2nc(-c3ccc(OCCCN4CCCCC4)cc3)oc2c1 (stereo not shown) [Example 161, 5-ethyl-6-{2-[4-(3-piperidin-1-yl-propoxy)-phenyl]-benzoxazol-6-yl}-4,5-dihydro-2H-pyridazin-3-one x HCl]",293
